Measured values published in patent US11371097B2, “Articles for diagnosis of liver fibrosis” (THE GOVERNMENT OF THE UNITED STATES, as represented by THE …, priority 2015, dated 2022).
Where “and” joins values, the source holds several entries; their conditions need not be identical. Equal values may be shown once. Read-outs that look alike come from different tables or passages of the source.

Experiments:
[1] = tested on: liver; details: cited from earlier work;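 as to Cytoplasmic Alteration: Severity grades from None 0% through Minimal Mild Moderate to Marked over 80% tissue affected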;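 as to Inflammation: Severity grades from None 0% through Minimal Mild Moderate to Marked over 80% tissue affected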
[2] = tested on: Timp1; assay: qPCR of liver RNA: Timp1; type: in vivo, Male Sprague-Dawley rats; details: across dose groups, vs control
Protocol: (§1) Working on dry ice, a portion (−10 mg) of flash-frozen liver was cut from each sample and transferred to a clean, labeled tube. Total RNA was then isolated using Qiagen's miRNeasy 96 kit (Qiagen, Valencia, Calif.) following manufacturer's instructions with a final elution volume of −150 μL (2×75 μL). The quality and quantity of RNA samples were evaluated with a 2100 Bioanalyzer (Agilent Technologies, Santa Clara, Calif.), using the Agilent RNA 6000 Nano Reagents and a multiwell NanoDrop 8000 spectrophotometer (Thermo Fisher Scientific, Waltham, Mass.).
Using 1 μg RNA input, cDNA was generated using a QuantiTect Reverse Transcription kit (Qiagen, Valencia, Calif.) following manufacturer's instructions. Applied Biosystems SYBR Green Master Mix was used in a 20 μL qPCR reaction with 2 μL of cDNA template and a 2.tM final concentration of each primer. A total of five genes were targeted (Gapdh, Actb, Timp1, Tgfbl, and Psma5), two of which served as the endogenous controls (Gapdh and Actb). An Applied Biosystems 7500 Real-Time PCR System (Applied Biosystems, Foster City, Calif.) was used for thermal cycling and fluorescence detection using the default settings for Quantitation-Comparative CT with SYBR® . . . Green Reagents which uses the following scheme: 95° C. for 10 minutes followed by 40 cycles of: 95° C. for 15 seconds, 60° C. for 1 minute, and a fluorescence signal read. […]

[3] = tested on: liver; type: in vivo, Male Sprague-Dawley rats;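 as to Cytoplasmic Alteration: Severity grades from None 0% through Minimal Mild Moderate to Marked over 80% tissue affected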;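 as to Inflammation: Severity grades from None 0% through Minimal Mild Moderate to Marked over 80% tissue affected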
Protocol: All chemical compounds were diluted in corn oil (CAS No. 8001-30-7) (MP Biomedicals, LLC (Solon, Ohio)). The dose volume was 5 mL/kg. Doses were selected based on doses published in the DrugMatrix database, the National Toxicology Program reports, and ATSDR reports.
(§2) In vivo rat experiments were performed at Integrated Laboratory Systems (ILS, Research Triangle Park, NC). ILS's Institutional Animal Care and Use Committee approved all experimental procedures. Research was conducted in compliance with the Animal Welfare Act, and other Federal statutes and regulations relating to animals and experiments involving animals and adheres to principles stated in the “Guide for Care and Use of Laboratory Animals” as prepared by the Committee on Care and Use of Laboratory Animals of the Institute of Laboratory Animal Resources, National Research Council in facilities that are fully accredited by the Association for Assessment and Accreditation of Laboratory Animal Care, International. Male Sprague-Dawley rats (CD IGS [CRL:CD (SD)]) were purchased from Charles River Laboratories (Stone Ridge, N.Y.). Rats weighing 215-245 g (8 weeks old) were used. Briefly, rats were housed two per cage with a rat tunnel enrichment device (Bio-Serve, Frenchtown, N.J.). Rats were fed a Purina Rodent Diet No. 5002 (Ralston Purina Co., St. Louis, Mo.), supplied ad libitum. Animals received reverse osmosis-treated tap water (City of Durham, N.C.) ad libitum, which was changed at least once weekly. Controls in the animal rooms were set to maintain temperatures between 20-In vivo rat experiments were performed at Integrated Laboratory Systems (ILS, Research Triangle Park, NC). ILS's Institutional Animal Care and Use Committee approved all experimental procedures. Research was conducted in compliance with the Animal Welfare Act, and other Federal statutes and regulations relating to animals and experiments involving animals and adheres to principles stated in the “Guide for Care and Use of Laboratory Animals” as prepared by the Committee on Care and Use of Laboratory Animals of the Institute of Laboratory Animal Resources, National Research Council in facilities that are fully accredited by the Association for Assessment and Accreditation of Laboratory Animal Care, International. Male Sprague-Dawley rats (CD IGS [CRL:CD (SD)]) were purchased from Charles River Laboratories (Stone Ridge, N.Y.). Rats weighing 215-245 g (8 weeks old) were used. Briefly, rats were housed two per cage with a rat tunnel enrichment device (Bio-Serve, Frenchtown, N.J.). Rats were fed a Purina Rodent Diet No. 5002 (Ralston Purina Co., St. Louis, Mo.), supplied ad libitum. Animals received reverse osmosis-treated tap water (City of Durham, N.C.) ad libitum, which was changed at least once weekly. Controls in the animal rooms were set to maintain temperatures between 20-25° C. with a relative humidity of 30-70% and a 12-hour light/12-hour dark cycle, lights on at 6:00 AM. Clinically healthy animals were assigned to dose groups using a procedure that stratifies animals across groups by body weight such that mean body weight of each group was not statistically different from any other group using analysis of variance (Statistical Analysis System version 9.2, SAS Institute, Cary, N.C.). Animals were dosed by oral gavage for five consecutive days (+10 minutes from the previous day's dose administration time). Volume was based upon daily body weight.
Animals were observed cageside one hour following daily dose administration, then 1-2 times per day during dosing regimens. Body weights were measured daily prior to dose administration, and prior to euthanasia. Twenty-four hours after the final dose administration, animals were anesthetized with isoflurane then euthanized by exsanguination followed by decapitation. Livers were harvested at necropsy and weighed to within 0.1 g. One half of the left lobe of the liver was fixed in 10% formalin. […]

[4] = type: in vivo, Male Sprague-Dawley rats
Protocol: as §2
Animals were observed cageside one hour following daily dose administration, then 1-2 times per day during dosing regimens. Body weights were measured daily prior to dose administration, and prior to euthanasia. Twenty-four hours after the final dose administration, animals were anesthetized with isoflurane then euthanized by exsanguination followed by decapitation. Livers were harvested at necropsy and weighed to within 0.1 g. One half of the left lobe of the liver was fixed in 10% formalin. The remaining half of the left lobe of the liver was flash frozen in liquid nitrogen, then stored below −70° C. Liver specimens were frozen in less than three minutes from time of death.

[5] = tested on: 67 genes on the fibrosis gene panel; assay: Multiplexed fibrosis gene panel (QuantiGene 2.0 Plex / Bioplex) on liver RNA; details: liver, 67 genes
Protocol: mRNA is isolated and purified from lysed tissue biopsy specimens. The target mRNA is incubated with beads conjugated to capture probes (each probe is an oligonucleotides specific for one of the genes in the panel). The target is hybridized to the probe by a capture extender-capture probe interaction. Specific mRNA targets hybridize overnight to the respective beads. The signal is amplified by incubating mRNA-capture probe pairs by affixing an amplifier affixed to a biotinylated label probe. Streptavidin-conjugated phycoerythrin (SAPE) is bound to the biotinylated probe to amplify the signal. The signal is detected and quantified by Bioplex suspension array instrumentation, which measures the SAPE fluorescence signal proportional to the amount of mRNA transcripts captured by the bead.
Candidate genes identified by co-expression modules and pathway/network approaches were fabricated into a custom gene panel using a commercial source (the QuantiGene 2.0 Plex assay, Affymetrix, Santa Clara, Calif.). A total of 71 genes plus 3 housekeeping genes were selected. Using 150 ng RNA input, samples were processed following manufacturer's instructions for purified RNA with use of the HandHeld Magnetic Plate Washer. Plates were read immediately following the final wash using the BioPlex 200 instrument (BioRad, Hercules, Calif.). The following parameters were set on the BioPlex instrument: sample size=100 μL; DD Gate=5,000-25,000; Timeout=45 sec; Bead Event/Bead Region=100.
For each sample, the average signal intensity was determined as recommended by the manufacturer. Duplicates were averaged. The average background signal for each gene was subtracted. Assay limit of detection was determined by adding three standard deviations of assay background signals to the average intensity of the background control wells. All intensities lower than the limit of detection for each probe was set to one unit above the probe's limit of detection. Probes with all intensities below the assay limit of detection were removed from the final analysis. The test gene signal was divided by the average intensities of the three normalization genes (Gapdh, Hprt1, Ppib). For each test gene, the fold change was calculated by dividing the normalized value for the treated samples by the normalized value of the vehicle-treated controls. Fold changes were plotted as log2 fold change. Gene expression data were imported into Partek Genomics Suite 6.0 (Partek, Inc., St. Louis, Mo.). Principal component analysis was used for multivariate interpretation to determine sources of variation across sample groups (Joliffe I T, Morgan B J. Principal component analysis and exploratory factor analysis. Statistical methods in medical research 1992; 1(1):69-95). Differentially expressed genes were determined by analysis of variance (ANOVA) with contrasts, setting the ANOVA factors as toxicant and the histopathological endpoint of fibrosis (any score >0). ANOVA variables were fibrosis score 0 (none) vs. score of >0 (minimal, mild, moderate, and marked). For hierarchical biclustering, differentially expressed genes were standardized by setting the genes expressed to a mean of zero and scaling to a standard deviation of one. Euclidean geometry was used to cluster row and column dissimilarity using a method of average linkage.
Chemical-dose groups were down-selected based on histopathology to conform to the 96-well assay format of the multiplexed panel of presumptive fibrosis genes. Three of the four dose groups were evaluated for the fibrogenic chemicals allyl alcohol and 4,4′-methylenedianiline. A single dose was selected with group-matched vehicle controls for each of the remaining chemicals. […] The highest dose of bromobenzene was selected because the vacuolation pathology was only observed at this dose.
Isolated liver RNA was incubated with microbead-bound capture probes specific for the 71 presumptive fibrogenic genes and three housekeeping normalization genes.

[6] = tested on: Tgfb1; assay: qPCR of liver RNA: Tgfb1; type: in vivo, Male Sprague-Dawley rats; details: liver, across dose groups, vs control
Protocol: as §1
Using 1 μg RNA input, cDNA was generated using a QuantiTect Reverse Transcription kit (Qiagen, Valencia, Calif.) following manufacturer's instructions. Applied Biosystems SYBR Green Master Mix was used in a 20 μL qPCR reaction with 2 μL of cDNA template and a 2.tM final concentration of each primer. A total of five genes were targeted (Gapdh, Actb, Timp1, Tgfbl, and Psma5), two of which served as the endogenous controls (Gapdh and Actb). An Applied Biosystems 7500 Real-Time PCR System (Applied Biosystems, Foster City, Calif.) was used for thermal cycling and fluorescence detection using the default settings for Quantitation-Comparative CT with SYBR® . . . Green Reagents which uses the following scheme: 95° C. for 10 minutes followed by 40 cycles of: 95° C. for 15 seconds, 60° C. for 1 minute, and a fluorescence signal read. Al! primers were obtained from Integrated DNA Technology's PrimeTime qPCR primer library (Integrated DNA Technologies, Coralville, Iowa).
Data was imported into GraphPad Prism (GraphPad Software, Inc.; LaJolla, Calif.) for analysis. A nonparametric Kruskal-Wallis analysis of variance by ranks with post hoc […] multiple comparison test was used to determine statistical difference among dose groups. A one sample t-test compared to a theoretical mean of 1.0 fold change was used to determine difference from control for each dose group. A p-value<0.05 was used as a cutoff for statistical significance.

[7] = 5-7 days oral administration or intraperitoneal injection, various doses
[8] = Allyl Alcohol 9.7 mg/kg, animals 9-12
[9] = Allyl Alcohol 45 mg/kg, animals 17, 18, 20

## S=C=Nc1cccc2ccccc12 [1-naphthyl isothiocyanate]
[1]; rat, in vivo
  Fibrosis score in the DrugMatrix study: scored fibrosis-positive

## CC(C)(Oc1ccc(CCNC(=O)c2ccc(Cl)cc2)cc1)C(=O)O [bezafibrate]
[1]; [7]
  Fibrosis score in the DrugMatrix study: scored fibrosis-positive

## COc1ccccc1OCCNCC(O)COc1cccc2[nH]c3ccccc3c12 (stereo not shown) [carvedilol]
[1]; [7]
  Fibrosis score in the DrugMatrix study: scored fibrosis-positive

## CC=CC(=O)N(CC)c1ccccc1C [crotamiton]
[1]; [7]
  Fibrosis score in the DrugMatrix study: scored fibrosis-positive

## C[C@]12CC[C@H]3[C@@H](CCC4=CC(=O)CC[C@@]43C)[C@@H]1CC[C@@H]2O [testosterone]
[1]; [7]
  Fibrosis score in the DrugMatrix study: scored fibrosis-positive

## allyl alcohol
[1]; [7]
  Fibrosis score in the DrugMatrix study: scored fibrosis-positive
[2]
  Timp1 gene expression by qPCR: showed a dose-dependent increase
[3]; [8]
  Bile Duct Hyperplasia and Fibroplasia: 0
  Cytoplasmic Alteration: 1
  Inflammation: 0
  Necrosis: 0
  Vacuolation: 0
[3]; Allyl Alcohol 20.9 mg/kg, animals 13-16
  Vacuolation: 0
[3]; [9]
  Bile Duct Hyperplasia and Fibroplasia: 3
  Cytoplasmic Alteration: 3 and 4 and 2
  Inflammation: 3 and 2
  Necrosis: 3 and 4
  Vacuolation: 0
[3]; across dose groups, five days (figure legend)
  Combined histopathological scores as percent of animals with pathology: dose-dependent increase in severe pathology
[3]; high doses
  Fibrosis histopathology in the present study: associated with fibrosis histopathology
[3]; high doses, listed as Allyl alcohol
  Fibrosis histopathology in the present study: scored positive for fibrosis
[3]; low-dose (carbon tetrachloride: all doses)
  Fibrosis histopathology: without fibrosis
[3]; oral gavage five days, across doses
  Degree of fibrosis: dose-dependent increase in the degree of fibrosis
[3]; oral gavage five days, high doses
  Histopathology: bile duct hyperplasia, fibrosis, necrosis: caused bile duct hyperplasia comorbid with fibrosis and necrosis
[4]; dose groups
  Body weight gain over the five experimental dosing days: increase in body weight gain
[4]; highest dose(s)
  Body weight change over the five-day exposure interval: gained less weight over the five-day exposure interval than their low-dose counterparts
[5]
  Hierarchical biclustering of log2 fold-changes in panel gene expression: clustered with the non-fibrogenic chemical-dose groups
[6]
  Tgfb1 gene expression by qPCR: showed a dose-dependent increase
